Results on 46 molecules are retold here after patent US20100056507A1, “PHENYL DERIVATIVES AND THEIR USE AS A MEDICAMENT” (IPSEN PHARMA S.A.S., priority 2006, published 2010).

pKi: −log10 of the molar value. Counter-ions that a name gives are not always drawn. Like-named read-outs stand apart in the source and are kept apart here.

As a reminder, the pKi is the negative decadic logarithm of the Ki, by convention in mol/L.

The assay deals with T1, human CB2 receptors (Homo sapiens, UniProt P34972).
T1 construct: expressed in transfected cells; membranes used
T1 sequence (P34972 whole entry): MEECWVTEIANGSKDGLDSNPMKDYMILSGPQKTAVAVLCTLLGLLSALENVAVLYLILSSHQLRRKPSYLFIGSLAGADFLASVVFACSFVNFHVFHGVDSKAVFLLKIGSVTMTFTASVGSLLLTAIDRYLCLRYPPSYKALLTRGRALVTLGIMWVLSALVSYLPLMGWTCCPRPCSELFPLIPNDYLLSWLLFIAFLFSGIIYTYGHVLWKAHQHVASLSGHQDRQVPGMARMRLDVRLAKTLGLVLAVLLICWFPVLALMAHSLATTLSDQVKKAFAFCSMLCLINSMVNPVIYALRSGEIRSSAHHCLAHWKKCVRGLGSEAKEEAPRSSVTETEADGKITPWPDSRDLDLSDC
The assay is described as follows: Affinity for the human CB2 cannabinoid receptors: inhibition of [3H]-CP55940 binding to transfected CHO-K1 cell membranes. The note with it: [3H]-CP55940 1 nM, CHO-K1 membranes expressing human CB2, Cheng-Prusoff correction. On the procedure: The affinity of the compounds of the invention for the human CB2 receptors is determined by measuring the inhibition of the binding of [^3H]-CP55940 to transfected CHO-K1 cell membrane preparations.
The cells are collected with 0.5 mM of EDTA and centrifuged at 500 g for 5 minutes at 4° C. The pellet is re-suspended in phosphate buffered saline medium (PBS) and centrifuged at 500 g for 5 minutes at 4° C. The pellet is re-suspended in a Tris 50 mM buffer medium at pH 7.4 and centrifuged at 500 g for 5 minutes at 4° C. The cells are lysed by sonication and centrifuged at 39,000 g for 10 minutes at 4° C. The pellet is re-suspended in the Tris 50 mM buffer medium at pH 7.4 and centrifuged at 50,000 g for 10 minutes at 4° C. The membranes obtained in this last pellet are stored at −80° C.
Measurement of the competitive inhibition of the binding of the [^3H]-CP55940 to the CB2 receptors is carried out in duplicate using 96-well polypropylene plates. The cell membranes (10 μg of proteins/well) are incubated with the [^3H]-CP55940 (1 nM) for 60 minutes at 25° C. in a Tris-HCl 50 mM buffer medium, pH 7.4, comprising 0.1% bovine serum albumin (BSA), 5 mM of MgCl2, and 50 μg/ml of bacitracin.
The filters are washed with Tris-HCl 50 mM buffer, pH 7.4 at 0-4° C. and the radioactivity present is determined using a counter (Packard Top Count).
The specific binding is obtained by subtracting the non-specific binding (determined in the presence of 0.1 μM of WIN55212-2 from the total binding). The data are analyzed by computer-assisted non-linear regression (MDL). For each test, a Cheng-Prusoff correction is made in order to convert the IC50 to the inhibition constant, Ki.
where [L] is the concentration of the radioligand used in the test and Kd is the radioligand equilibrium disassociation constant.

For the molecule `CC1(C)CCC(C)(C)c2cc(-c3nnc(CCc4ccc(NC(=O)C5CCC5)cc4)o3)ccc21` [Example 31], the negative-log Ki (pKi) reads like this: (read-out: Ki < 0.5 μM) above 6.30; (read-out: Ki < 5 μM) above 5.30.
Taken in the same sequence, the figures for `COCCC(=O)Nc1ccc(CCOC(=O)c2ccc3c(c2)C(C)(C)CCC3(C)C)cc1` [Example 86] were above 6.30 and above 5.30.
The like results for `C=CCNC(=O)Nc1ccc(CNc2nnc(-c3cc(C(C)(C)C)cc(C(C)(C)C)c3)o2)cc1` [Example 24] were, in that order, above 6.30 and above 5.30.
Taken in the same sequence, the figures for `CCCNC(=S)Nc1ccc(CCOC(=O)c2ccc3c(c2)C(C)(C)CCC3(C)C)cc1` [Example 77] were above 6.30 and above 5.30.
Turning to `O=C(OCCc1ccc(NC(=O)C2CCC2)cc1)c1ccc2c(c1)OCCO2` [Example 4], the pKi (read-out: Ki < 5 μM) is above 5.30.
On to `CC1(C)CCc2cc(C(=O)OCCc3ccc(NC(=O)C4CCC4)cc3)ccc2O1` [Example 42], for which the pKi is, setting by setting: (read-out: Ki < 0.5 μM) above 6.30; (read-out: Ki < 5 μM) above 5.30.
Taken in the same sequence, the figures for `CN1CCOc2cc(C(=O)OCCc3ccc(NC(=O)C4CCC4)cc3)ccc21` [Example 10] were above 6.30 and above 5.30.
Taken in the same sequence, the figures for `CC1(C)CCC(C)(C)c2cc(C(=O)OCCc3ccc(NC(=O)C4CC45CCC5)cc3)ccc21` (centres unmarked) [Example 90] were above 6.30 and above 5.30.
Consider `CCCCC(=O)Nc1ccc(CCOC(=O)c2ccc3c(c2)C(C)(C)CCC3(C)C)cc1` [Example 60], for which the negative logarithm of the Ki (pKi) was above 6.30 (read-out: Ki < 0.5 μM) and above 5.30 (read-out: Ki < 5 μM).
The like results for `CC1(C)CCC(C)(C)c2cc(C(=O)OCCc3ccc(NC(=S)NCc4ccco4)cc3)ccc21` [Example 80] were, in that order, above 6.30 and above 5.30.
For `CC1(C)CCC(C)(C)c2cc(C(=O)OCCc3ccc(NC(=O)C4CC4)cc3)ccc21` [Example 63], the negative logarithm of the Ki (pKi) is above 6.30 (read-out: Ki < 0.5 μM) and above 5.30 (read-out: Ki < 5 μM).
Taken in the same sequence, the figures for `CC(C)(C)C(=O)Nc1ccc(CCOC(=O)c2ccc3c(c2)C(C)(C)CCC3(C)C)cc1` [Example 57] were above 6.30 and above 5.30.
Regarding `CC(C)C(=O)Nc1ccc(CCOC(=O)c2ccc3c(c2)C(C)(C)CCC3(C)C)cc1` [Example 56], the pKi by setting is: (read-out: Ki < 0.5 μM) above 6.30; (read-out: Ki < 5 μM) above 5.30.
Taken in the same sequence, the figures for `CC(C)(C)c1cc(-c2nnc(NCc3ccc(/N=C(/N)c4cccs4)cc3)o2)cc(C(C)(C)C)c1` [Example 27] were above 6.30 and above 5.30.
Taken in the same sequence, the figures for `CC(C)(C)c1cc(-c2nnc(CCc3ccc(/N=C(/N)c4cccs4)cc3)o2)cc(C(C)(C)C)c1` [Example 22] were above 6.30 and above 5.30.
In the case of `CCNC(=S)Nc1ccc(CCOC(=O)c2ccc3c(c2)C(C)(C)CCC3(C)C)cc1` [Example 76, 2-(4-{[(ethylamino)carbonothioyl]amino}phenyl)ethyl 5,5,8,8-tetramethyl-5,6,7,8-tetrahydronaphthalene-2-carboxylate], the negative logarithm of the Ki (pKi) is above 6.30 (read-out: Ki < 0.5 μM) and above 5.30 (read-out: Ki < 5 μM).
In the case of `CCNC(=O)Nc1ccc(CCOC(=O)c2ccc3c(c2)C(C)(C)CCC3(C)C)cc1` [Example 81], the negative-log Ki (pKi) is, setting by setting: (read-out: Ki < 0.5 μM) above 6.30; (read-out: Ki < 5 μM) above 5.30.
For the molecule `O=C(OCCc1ccc(NC(=O)C2CCC2)cc1)c1ccc2c(c1)OCO2` [Example 34], the negative-log Ki (pKi) (read-out: Ki < 5 μM) was above 5.30.
Take `CC1(C)CCC(C)(C)c2cc(C(=O)OCCc3ccc(NC(=O)NC4CCC4)cc3)ccc21` [Example 97]: the negative-log Ki (pKi) reads like this: (read-out: Ki < 0.5 μM) above 6.30; (read-out: Ki < 5 μM) above 5.30.
The like results for `CC(=O)Nc1ccc(CCOC(=O)c2ccc3c(c2)C(C)(C)CCC3(C)C)cc1` [Example 54] were, in that order, above 6.30 and above 5.30.
Turning to `CC(C)(C)c1cc(-c2nnc(Cc3ccc(NC(=O)C4CCC4)cc3)o2)cc(C(C)(C)C)c1` [Example 12], the pKi was above 6.30 (read-out: Ki < 0.5 μM) and above 5.30 (read-out: Ki < 5 μM).
Regarding `CCCNC(=O)Nc1ccc(Cc2nnc(-c3cc(C(C)(C)C)cc(C(C)(C)C)c3)o2)cc1` [Example 14], the negative logarithm of the Ki (pKi) (read-out: Ki < 0.5 μM) is above 6.30 and the negative logarithm of the Ki (pKi) (read-out: Ki < 5 μM) was above 5.30.
Taken in the same sequence, the figures for `CC1(C)CCC(C)(C)c2cc(C(=O)OCCc3ccc(NC(=O)C4CCC4)cc3)ccc21` [Example 1, 2-{4-[(cyclobutylcarbonyl)amino]phenyl}ethyl 5,5,8,8-tetramethyl-5,6,7,8-tetrahydronaphthalene-2-carboxylate] were above 6.30 and above 5.30.
With `C=CCNC(=O)Nc1ccc(CCc2nnc(-c3cc(C(C)(C)C)cc(C(C)(C)C)c3)o2)cc1` [Example 17], the pKi was above 6.30 (read-out: Ki < 0.5 μM) and above 5.30 (read-out: Ki < 5 μM).
`CC1CC1C(=O)Nc1ccc(CCOC(=O)c2ccc3c(c2)C(C)(C)CCC3(C)C)cc1` (centres unmarked) [Example 88]: the negative logarithm of the Ki (pKi) reads like this: (read-out: Ki < 0.5 μM) above 6.30; (read-out: Ki < 5 μM) above 5.30.
The like results for `CC1(C)CCC(C)(C)c2cc(C(=O)OCCc3ccc(NC(=O)C4CCCC4)cc3)ccc21` [Example 64] were, in that order, above 6.30 and above 5.30.
For the molecule `COCCNC(=S)Nc1ccc(CCOC(=O)c2ccc3c(c2)C(C)(C)CCC3(C)C)cc1` [Example 79], the pKi was above 6.30 (read-out: Ki < 0.5 μM) and above 5.30 (read-out: Ki < 5 μM).
The like results for `CC1(C)CCC(C)(C)c2cc(C(=O)OCCc3ccc(NC(=O)Cc4cccs4)cc3)ccc21` [Example 68] were, in that order, above 6.30 and above 5.30.
For `CC1(C)CCC(C)(C)c2cc(C(=O)OCCc3ccc(NS(C)(=O)=O)cc3)ccc21` [Example 69, 2-{4-[(methylsulphonyl)amino]phenyl}ethyl 5,5,8,8-tetramethyl-5,6,7,8-tetrahydronaphthalene-2-carboxylate], the pKi reads like this: (read-out: Ki < 0.5 μM) above 6.30; (read-out: Ki < 5 μM) above 5.30.
Taken in the same sequence, the figures for `CC1(C)CCNc2ccc(C(=O)OCCc3ccc(NC(=O)C4CCC4)cc3)cc21` [Example 50] were above 6.30 and above 5.30.
The like results for `CC1(C(=O)Nc2ccc(CCOC(=O)c3ccc4c(c3)C(C)(C)CCC4(C)C)cc2)CC1` [Example 87] were, in that order, above 6.30 and above 5.30.
On to `C=CCCC(=O)Nc1ccc(CCOC(=O)c2ccc3c(c2)C(C)(C)CCC3(C)C)cc1` [Example 62], for which the pKi (read-out: Ki < 0.5 μM) is above 6.30 and the pKi (read-out: Ki < 5 μM) was above 5.30.
Taken in the same sequence, the figures for `CCCNC(=O)Nc1ccc(Cc2noc(-c3cc(C(C)(C)C)cc(C(C)(C)C)c3)n2)cc1` [Example 21] were above 6.30 and above 5.30.
In the case of `CC(C)(C)c1cc(-c2nnc(NCc3ccc(NC(=O)C4CCC4)cc3)o2)cc(C(C)(C)C)c1` [Example 23], where the note is “read-out: Ki < 5 μM”, the negative-log Ki (pKi) is above 5.30.
For `CCC(C)NC(=O)Nc1ccc(CCOC(=O)c2ccc3c(c2)C(C)(C)CCC3(C)C)cc1` (centres unmarked) [Example 82], the pKi by setting is: (read-out: Ki < 0.5 μM) above 6.30; (read-out: Ki < 5 μM) above 5.30.
Taken in the same sequence, the figures for `CC1(C)CCC(C)(C)c2cc(C(=O)OCCc3ccc(NS(=O)(=O)C4CC4)cc3)ccc21` [Example 72] were above 6.30 and above 5.30.
As to `O=C(OCCc1ccc(NC(=O)C2CCC2)cc1)c1ccc2c(c1)C(=O)CCC2` [Example 7], the pKi (read-out: Ki < 5 μM) is above 5.30.
In the case of `CC1(C)CCC(C)(C)c2cc(-c3nc(CCc4ccc(NC(=O)C5CCC5)cc4)no3)ccc21` [Example 98], the negative-log Ki (pKi) was above 6.30 (read-out: Ki < 0.5 μM) and above 5.30 (read-out: Ki < 5 μM).
In the case of `C=CCNC(=O)Nc1ccc(CCc2nnc(-c3ccc4c(c3)C(C)(C)CCC4(C)C)s2)cc1` [Example 52], the pKi by setting is: (read-out: Ki < 0.5 μM) above 6.30; (read-out: Ki < 5 μM) above 5.30.
As to `C=CCNC(=O)Nc1ccc(CCc2nnc(-c3ccc4c(c3)C(C)(C)CCC4(C)C)o2)cc1` [Example 32], the negative-log Ki (pKi) is above 6.30 (read-out: Ki < 0.5 μM) and above 5.30 (read-out: Ki < 5 μM).
`CC1(C)CCC(C)(C)c2cc(-c3nnc(CCc4ccc(/N=C(/N)c5cccs5)cc4)o3)ccc21` [Example 6, N′-(4-{2-[5-(5,5,8,8-tetramethyl-5,6,7,8-tetrahydronaphthalen-2-yl)-1,3,4-oxadiazol-2-yl]ethyl}phenyl)thiophene-2-carboximidamide hydrochloride]: the pKi (read-out: Ki < 5 μM) was above 5.30.
`CCCNC(=O)Nc1ccc(CCc2nnc(-c3ccc4c(c3)C(C)(C)CCC4(C)C)o2)cc1` [Example 33]: the negative-log Ki (pKi) was above 6.30 (read-out: Ki < 0.5 μM) and above 5.30 (read-out: Ki < 5 μM).
For the molecule `CCCNC(=O)Nc1ccc(CCc2nnc(-c3cc(C(C)(C)C)cc(C(C)(C)C)c3)o2)cc1` [Example 18], the negative-log Ki (pKi) runs as follows: (read-out: Ki < 0.5 μM) above 6.30; (read-out: Ki < 5 μM) above 5.30.
As for `O=C(OCCc1ccc(NC(=O)C2CCC2)cc1)c1ccc2c(c1)C(=O)CC2` [Example 38], under “read-out: Ki < 5 μM”, the pKi is above 5.30.
For the molecule `CC(C)(C)c1cc(-c2nnc(CCc3ccc(NC(=O)C4CCC4)cc3)o2)cc(C(C)(C)C)c1` [Example 16], the negative-log Ki (pKi) by setting is: (read-out: Ki < 0.5 μM) above 6.30; (read-out: Ki < 5 μM) above 5.30.
The like results for `CC1(C)CCC(C)(C)c2cc(C(=O)OCCc3ccc(NC(=O)C4CCCCC4)cc3)ccc21` [Example 65] were, in that order, above 6.30 and above 5.30.
